# Laboratory results from patent US8802209B2, “Multi-layered plastic polymeric container for the storage of pharmaceutical compositions” (Ceva Santé Animale, priority 2007, dated 2014).
# Assay: Analysis of additives in the multi-layered plastic container before and after sterilization by irradiation
# Type: physicochemical
# Settings: After irradiation - dose of 25 kGy
# Description: A physico-chemical study of the outer layers made of polypropylene before and after irradiation at 25 kGy was performed.
row,SMILES,Quantity of additives in polypropylene (ppm)
1,"CC(C)(C)c1cc(CCC(=O)OCC(COC(=O)CCc2cc(C(C)(C)C)c(O)c(C(C)(C)C)c2)(COC(=O)CCc2cc(C(C)(C)C)c(O)c(C(C)(C)C)c2)COC(=O)CCc2cc(C(C)(C)C)c(O)c(C(C)(C)C)c2)cc(C(C)(C)C)c1O [IRGANOX 1010, pentaerythrityl tetrakis(3-(3,5-di-tert-butyl-4-hydroxyphenyl)-propionate)]",Not detected
2,"CC(C)(C)c1cc(Cn2c(=O)n(Cc3cc(C(C)(C)C)c(O)c(C(C)(C)C)c3)c(=O)n(Cc3cc(C(C)(C)C)c(O)c(C(C)(C)C)c3)c2=O)cc(C(C)(C)C)c1O [IRGANOX 3114, 1,3,5-tris(3,5-di-tert-butyl-4-hydroxybenzyl)-s-triazine-2,4,6(1H,3H,5H)-trione]",Not detected
3,"CC(C)(C)c1ccc(OP(Oc2ccc(C(C)(C)C)cc2C(C)(C)C)Oc2ccc(C(C)(C)C)cc2C(C)(C)C)c(C(C)(C)C)c1 [IRGAPHOS 168, phosphite tris(2,4-bis(1,1-dimethylethyl)-phenyl)]",Not detected
